The text below walks through data of publication PMC8688338 (Molecular microbiology, 2021).

Test [1] deals with vaginal trichomonad infection. The conditions noted are these: murine model of vaginal trichomonad infection; ref Natto et al., 2021; cited from earlier work.
For test [2], the system named is low affinity pyrimidine nucleobase transporter of T. vaginalis. Briefly: [3H]-uracil transport in T. vaginalis trophozoites. Type of test: cell-based, Trichomonas vaginalis.
The subject of test [3] is T. vaginalis nucleoside transporters, Thymidine (LA). The experiment in a line: Low affinity thymidine transport. Type of test: cell-based, Trichomonas vaginalis. The conditions noted are these: for EC50: 2-site equation, Fig. 3E.
In test [4] the target is TvagENT3 (Trichomonas vaginalis, UniProt A2E5Q3). The experiment in a line: [3H]-cytidine uptake by T. brucei TbAT1-KO cells expressing TvagENT3.
For test [5], the system named is T. vaginalis nucleoside transporters, Adenosine (LA). Briefly: Low affinity adenosine transport. Type of test: cell-based, Trichomonas vaginalis. The conditions noted are these: for Ki: read-out: Ki,app, average and SEM.
Test [6] has as its system T. vaginalis nucleoside transporters, Thymidine (HA). Briefly: Higher affinity [3H]-thymidine transport. Type of test: cell-based, Trichomonas vaginalis.
Test [7] has as its target T. vaginalis nucleoside transporters, Adenosine (HA). The experiment in a line: High affinity [3H]-adenosine transport in T. vaginalis trophozoites. As to conditions: read-out: Ki,app; inhibition of […] [3H]-adenosine transport, 30 s; monophasic; average and SEM. Type of test: cell-based, Trichomonas vaginalis.
In test [8] the test system is P1 transporter. As to conditions: thymidine uptake by P1 transporter; ref De Koning and Jarvis, 1999; cited from earlier work.
The target of test [9] is T. vaginalis nucleoside transporters, Guanosine (HA). The experiment in a line: [3H]-guanosine transport in T. vaginalis trophozoites. In kind it is cell-based, Trichomonas vaginalis. As to conditions: read-out: Ki,app; inhibition of [3H]-guanosine transport; monophasic sigmoid curve; average and SEM.
Test [10] deals with uracil transporter. In kind it is cell-based, Trypanosoma brucei. As to conditions: 0.25 µM [3H]-uridine, control (empty vector) cells, 250 µM uracil.
The mark [11] stands for this setting: Lineweaver-Burk double reciprocal plot, single experiment, Fig. 3F.
Where [12] appears, read: saturation curve, single experiment, Fig. 3E inset.
Where [13] appears, read: inhibition of 20 µM [3H]-adenosine transport.
Where [14] appears, read: single experiment, Fig. 3C inset.
Setting [15] is: single experiment, Fig. 5D inset.

SMILES strings stand for the structures. Values joined by “and” are separate entries in the source; they are usually repeats but may differ in a detail not shown here. Equal values may be shown once. Read-outs that look alike come from different tables or passages of the source. Bounds are passed on as bounds.

In the case of `Nc1ncnc2c1c(-c1ccc(Cl)cc1)cn2[C@@H]1O[C@H](CO)[C@@H](O)[C@H]1O` [7-(4-Cl-phenyl),7-deazaadenosine], in test [1], the efficacy entry is “efficacious”.

For orientation: EC50 means the concentration that produces a half-maximal response. The Km is the concentration of substrate that gives half-maximal velocity. What is called Hill slope is a measure of the steepness of the concentration-response curve. By inhibition is commonly meant the percentage by which the read-out fell short of the control. On to `Cc1cn([C@H]2C[C@H](O)[C@@H](CO)O2)c(=O)[nH]c1=O` [thymidine], for which, in [2] (uridine, thymidine up to 10 mM, adenosine, inosine up to 1 mM), the “inhibition of uracil transport” value was “unable to inhibit”. In addition, the rate of uptake in test [3] (1 µM [3H]-thymidine) is reported as 0.139 ± 0.008 pmol(10^7 cells)^−1s^−1; in test [6] (0.125 µM [3H]-thymidine, average of 4 experiments over 60 s) it was 0.0045 ± 0.0012 pmol(10^7 cells)^−1s^−1. Besides, the “rate of uptake in the presence of unlabelled permeant” value in test [3] (1 µM [3H]-thymidine + 1 mM thymidine) is on record as 0.013 ± 0.0018 pmol(10^7 cells)^−1s^−1. For the same compound, the results for the inhibition of uptake in [3] (1 µM [3H]-thymidine by 1 mM unlabelled thymidine) and in test [6] (0.125 µM [3H]-thymidine by 1 mM unlabelled thymidine) were 90.6% and 75%, respectively. Moreover, the “Vmax, low affinity component” value in [3] (setting [11]) is recorded as 12.0 pmol(10^7 cells)^−1s^−1. In addition, the Vmax in test [3] (Thymidine (LA), average and SEM) is listed as 9.4 ± 2.5 pmol(10^7 cells)^−1s^−1; in [3] (setting [12]), 12.9 pmol(10^7 cells)^−1s^−1; in test [6] (Thymidine (HA), average and SEM), 0.69 ± 0.37 pmol(10^7 cells)^−1s^−1; in [6] (Thymidine (HA), average and SEM, listed as Thymidine), 6.7 ± 1.8 pmol(10^7 cells)^−1s^−1; in [6] (setting [14]), 0.245 pmol(10^7 cells)^−1s^−1. Further, the EC50 was determined as 10.7 µM in [3] (read-out: EC50, higher affinity component, 1 µM [3H]-thymidine, single experiment); 529 µM in [3] (read-out: EC50, lower affinity component, 1 µM [3H]-thymidine, single experiment); 817 µM in test [5] (inhibition of 20 µM [3H]-adenosine transport, single experiment, Fig. 4); 11.7 µM in [6] (inhibition of 0.125 µM [3H]-thymidine uptake, single experiment, Fig. 3C/D). Besides, the Km in [3] (read-out: Km, low affinity component, Lineweaver-Burk double reciprocal plot, single experiment, Fig. 3F) stood at 340 µM; in [3] (read-out: Km,app, Thymidine (LA), 1 µM [3H]-thymidine, average and SEM), 470 ± 104 µM; in test [3] (setting [12]), 394 µM; in [6] (read-out: Km, higher affinity component, Lineweaver-Burk double reciprocal plot, single experiment, Fig. 3F), 23.6 µM; in test [6] (read-out: Km,app, Thymidine (HA), 125 nM [3H]-thymidine, average and SEM), 13.2 ± 0.8 µM; in [6] (setting [14]) it was 15.1 µM. In addition, the Hill slope in test [4] is −1.17 ± 0.15; in test [4] (single experiment, Fig. 10D-F), −1.1. In addition, the Ki in test [4] amounted to 286 ± 12 µM; in test [5] (setting [13]), 557 ± 135 µM; in test [7], 274 ± 45 µM; in [9] it was 206 ± 62 µM. Also, the inhibition at 400 µM in test [4] (read-out: inhibition of cytidine uptake) came out at 62.6%. The “Vmax, higher affinity component” value in test [6] (setting [11]) was 2.2 pmol(10^7 cells)^−1s^−1. In addition, in test [8], the affinity is reported as 44 µM.

Consider `O=c1cc[nH]c(=O)[nH]1` [uracil], for which the rate of uptake in [2] (0.5 µM [3H]-uracil) is given as 0.0056 ± 0.0003 pmol(10^7 cells)^−1s^−1. Also, the “rate of uptake in the presence of unlabelled permeant” value in test [2] (0.5 µM [3H]-uracil + 1 mM unlabelled uracil) is reported as 0.0011 ± 0.0002 pmol(10^7 cells)^−1s^−1. A half-maximal response in [2] (0.5 µM [3H]-uracil over 20 s, single experiment, Fig. 5D) (EC50) required 247 µM. Besides, the Vmax was 1.58 ± 0.08 pmol(10^7 cells)^−1s^−1 in test [2] (0.5 µM [3H]-uracil, 20 s, average) and 1.43 pmol(10^7 cells)^−1s^−1 in [2] (setting [15]). The Km in [2] (read-out: Km,app, 0.5 µM [3H]-uracil, 20 s, average) was 257 ± 58 µM; in test [2] (setting [15]) it was 298 µM. For the same compound, the “reduction of background uridine uptake” value in test [10] is ~ 85% and 84.7%. Further, the inhibition of transport is not above 50% in test [5] (20 µM [3H]-adenosine, highest tested concentration: guanosine 250 µM, adenine 1 mM, hypoxanthine 1 mM, uracil 10 mM) and not above 50% in test [6] (125 nM [3H]-thymidine, nucleobase at 1 mM). Moreover, the Ki in [5] (setting [13]) was more than 10000 µM.
